Data taken from patent publication US9770446B2, “Piperidine urea derivatives” (MERCK PATENT GMBH, priority 2013, dated 2017).

Legend:
His-tagged Parp-1 = molecular target: T1, His-tagged Parp-1 (Homo sapiens, UniProt P09874); experiment: PARP-1 autoparsylation HTRF assay; assay type: biochemical
T1 construct: purchased Enzo Life Sciences GmbH, Lörrach, Germany
Excerpt: Description of the PARP1 Assay
Biochemical Activity Testing of PARP-1: Autoparsylation Assay
The autoparsylation assay is run in two steps: the enzymatic reaction in which His-tagged Parp-1 transfers biotinylated ADP-ribose/ADP-ribose to itself from biotinylated NAD/NAD as co-substrate and the detection reaction where a time resolved FRET between cryptate labelled anti-His antibody bound to the His tag of the enzyme and Xlent® labelled-streptavidin bound the biotin-parsylation residue is analysed. The autoparsylation activity is detectable directly via the increase in HTRF signal.
The autoparsylation assay is performed as 384-well HTRF® (Cisbio, Codolet, France) assay format in Greiner low volume nb 384-well microtiter plates. 35 nM His-tagged Parp-1 (human, recombinant, Enzo Life Sciences GmbH, Lörrach, Germany) and a mixture of 125 nM bio-NAD (Biolog, Life science Inst., Bremen, Germany) and 800 nM NAD as co-substrate are incubated in a total volume of 6 μl (100 mM Tris/HCl, 4 mM Mg-chloride, 0.01% IGEPAL® CA630, 1 mM DTT, 0.5% DMSO, pH 8, 13 ng/μl activated DNA (BPS Bioscience, San Diego, US)) in the absence or presence of the test compound (10 dilution concentrations) for 150 min at 23° C. The reaction is stopped by the addition of 4 μl of the Stop/detection solution (70 nM SA-Xlent® (Cisbio, Codolet, France), 2.5 nM Anti-His-K® (Eu-labelled anti-His, Cisbio, Codolet, France) in 50 mM HEPES, 400 mM KF, 0.1% BSA, 20 mM EDTA, pH 7.0). After 1 h incubation at room temperature the HTRF iss measured with an Envision multimode reader (Perkin Elmer LAS Germany GmbH) at excitation wavelength 340 nm (laser mode) and emission wavelengths 615 nm and 665 nm. The ratio of the emission signals is determined. The full value used is the inhibitor-free reaction. The pharmacological zero value used is Olaparib (LClabs, Woburn, US) in a final concentration of 1 μM. The inhibitory values (IC50) are determined using either the program Symyx Assay Explorer® or Condosseo® from GeneData.

[1] = molecular target: T2, GST-tagged Tnks-2 (873-1166 aa) (Homo sapiens, UniProt Q9H2K2); experiment: TNKS2 activity ELISA (autoparsylation assay); assay type: biochemical
T2 construct: GST-tagged Tnks-2 (873-1166 aa, prepared in-house); made in house
T2 sequence (Q9H2K2 873-1166): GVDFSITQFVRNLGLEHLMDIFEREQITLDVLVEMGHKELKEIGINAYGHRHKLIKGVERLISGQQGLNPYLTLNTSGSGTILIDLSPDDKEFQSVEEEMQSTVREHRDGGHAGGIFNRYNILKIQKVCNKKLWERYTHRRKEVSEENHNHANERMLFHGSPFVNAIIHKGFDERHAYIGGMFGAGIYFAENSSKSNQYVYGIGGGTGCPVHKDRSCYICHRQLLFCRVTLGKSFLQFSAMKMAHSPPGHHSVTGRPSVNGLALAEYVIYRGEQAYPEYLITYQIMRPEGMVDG
Experimental: (§1) Description of the TNKS1 and TNKS2 ELISA Assay
(§2) Biochemical Activity Testing of TNKS 1 and 2: Activity ELISA (Autoparsylation Assay)
(§3) For analysis of autoparsylation activity of TNKS 1 and 2 an activity ELISA iss performed: In the first step GST tagged TNKS is captured on a Glutathione coated plate. Then the activity assay with biotinylated NAD is performed in the absence/presence of the compounds. During the enzymatic reaction GST tagged TNKS transfers biotinylated ADP-ribose to itself from biotinylated NAD as co-substrate. For the detection streptavidin-HRP conjugate is added that binds to the biotinylated TNKS and is thereby captured to the plates. The amount of biotinylated resp. autoparsylated TNKS is detected with a luminescence substrate for HRP. The level of the luminescence signal correlates directly with the amount of autoparsylated TNKS and therefore with activity of TNKS.
(§4) The activity ELISA is performed in 384 well Glutathione coated microtiter plates (Express capture Glutathione coated plate, Biocat, Heidelberg, Germany). The plates are pre-equilibrated with PBS. Then the plates are incubated with 50 μl 20 ng/well GST-tagged Tnks-1 (1023-1327 aa, prepared in-house), respectively GST-tagged Tnks-2 (873-1166 aa, prepared in-house) in assay buffer (50 mM HEPES, 4 mM Mg-chloride, 0.05% Pluronic F-68, 2 mM DTT, pH 7.7) overnight at 4° C. The plates are washed 3 times with PBS-Tween-20. The wells are blocked by incubation at room temperature for 20 minutes with 50 μl blocking buffer (PBS, 0.05% Tween-20, 0.5% BSA). Afterwards the plates are washed 3 times with PBS-Tween-20. The enzymatic reaction is performed in 50 μl reaction solution (50 mM HEPES, 4 mM Mg-chloride, 0.05% Pluronic F-68, 1.4 mM DTT, 0.5% DMSO, pH 7.7) with 10 μM bio-NAD (Biolog, Life science Inst., Bremen, Germany) as co-substrate in the absence or presence of the test compound (10 dilution concentrations) for 1 hour at 30° C. The reaction is stopped by 3 times washing with PBS-Tween20. For the detection 50 μl of 20 ng/μl Streptavidin, HRP conjugate (MoBiTec, Göttingen, Germany) in PBS/0.05% Tween-20/0.01% BSA are added and the plates are incubated for 30 minutes at room temperature. After three times washing with PBS-Tween-20 50 μl of SuperSignal ELISA Femto Maximum sensitivity substrate solution (ThermoFisherScientific (Pierce), Bonn, Germany) are added. Following a 1 minute incubation at room temperature luminescence signals are measured with an Envision multimode reader (Perkin Elmer LAS Germany GmbH) at 700 nm. The full value used is the inhibitor-free reaction. The pharmacological zero value used is XAV-939 (Tocris) in a final concentration of 5 μM. The inhibitory values (IC50) are determined using either the program Symyx Assay Explorer® or Condosseo® from GeneData.

Tankyrase = experiment: Cellular inhibition of Tankyrase: Axin2 level in DLD1 cells (Luminex); assay type: cell-based; details: 24 hours, Axin2 increase, read-out: EC50 [M] TNKS cellular assay
Experimental: Measurement of Cellular Inhibition of Tankyrase
Since Tankyrases have been described to modulate cellular level of Axin2 (Huang et al., 2009; Nature) the increase of Axin2 level is used as read-out for determination of cellular inhibition of Tankyrases in a Luminex based assay.
Cells of the colon carcinoma cell line DLD1 are plated in 96 well plates with 1.5×10^4 cells per well. Next day, cells are treated with a serial dilution of test compound in seven steps as triplicates with a final DMSO concentration of 0.3%. After 24 hours, cells are lysed in lysis buffer (20 mM Tris/HCl pH 8.0, 150 mM NaCl, 1% NP40, 10% Glycerol) and lysates are cleared by centrifugation through a 96 well filter plate (0.65 μm). Axin2 protein is isolated from cell lysates by incubation with a monoclonal anti-Axin2 antibody (R&D Systems #MAB6078) that is bound to fluorescent carboxybeads. Then, bound Axin2 is specifically detected with a polyclonal anti-Axin2 antibody (Cell Signaling #2151) and an appropriate PE-fluorescent secondary antibody. The amount of isolated Axin2 protein is determined in a Luminex^200 machine (Luminex Corporation) according to the manufacturer's instruction by counting 100 events per well. Inhibition of Tankyrase by test compounds results in higher levels of Axin2 which directly correlates with an increase of detectable fluorescence. As controls cells are treated with solvent alone (neutral control) and with a Tankyrase reference inhibitor IWR-2 (3E-06 M) which refers as control for maximum increase of Axin2. For analysis, the obtained data are normalized against the untreated solvent control and fitted for determination of the EC50 values using the Assay Explorer software (Accelrys).

[2] = molecular target: T3, GST-tagged Tnks-1 (1023-1327 aa) (Homo sapiens, UniProt O95271); experiment: TNKS1 activity ELISA (autoparsylation assay); assay type: biochemical
T3 construct: GST-tagged Tnks-1 (1023-1327 aa, prepared in-house); made in house
T3 sequence (O95271 1023-1327): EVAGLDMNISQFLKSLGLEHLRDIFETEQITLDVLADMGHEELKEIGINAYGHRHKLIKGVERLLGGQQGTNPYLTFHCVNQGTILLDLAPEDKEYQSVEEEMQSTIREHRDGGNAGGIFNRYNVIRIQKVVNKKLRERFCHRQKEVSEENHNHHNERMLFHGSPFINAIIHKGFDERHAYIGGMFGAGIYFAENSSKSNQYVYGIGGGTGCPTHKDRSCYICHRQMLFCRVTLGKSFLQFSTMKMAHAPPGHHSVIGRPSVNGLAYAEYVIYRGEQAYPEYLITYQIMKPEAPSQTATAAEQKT
Experimental: as §1, §2, §3, §4

ρ-catenin = details: by increasing the levels of the AXIN1 and AXIN2 proteins; cited from earlier work
DLD-1-cancer cells = details: cited from earlier work

T1 sequence (P09874 whole entry): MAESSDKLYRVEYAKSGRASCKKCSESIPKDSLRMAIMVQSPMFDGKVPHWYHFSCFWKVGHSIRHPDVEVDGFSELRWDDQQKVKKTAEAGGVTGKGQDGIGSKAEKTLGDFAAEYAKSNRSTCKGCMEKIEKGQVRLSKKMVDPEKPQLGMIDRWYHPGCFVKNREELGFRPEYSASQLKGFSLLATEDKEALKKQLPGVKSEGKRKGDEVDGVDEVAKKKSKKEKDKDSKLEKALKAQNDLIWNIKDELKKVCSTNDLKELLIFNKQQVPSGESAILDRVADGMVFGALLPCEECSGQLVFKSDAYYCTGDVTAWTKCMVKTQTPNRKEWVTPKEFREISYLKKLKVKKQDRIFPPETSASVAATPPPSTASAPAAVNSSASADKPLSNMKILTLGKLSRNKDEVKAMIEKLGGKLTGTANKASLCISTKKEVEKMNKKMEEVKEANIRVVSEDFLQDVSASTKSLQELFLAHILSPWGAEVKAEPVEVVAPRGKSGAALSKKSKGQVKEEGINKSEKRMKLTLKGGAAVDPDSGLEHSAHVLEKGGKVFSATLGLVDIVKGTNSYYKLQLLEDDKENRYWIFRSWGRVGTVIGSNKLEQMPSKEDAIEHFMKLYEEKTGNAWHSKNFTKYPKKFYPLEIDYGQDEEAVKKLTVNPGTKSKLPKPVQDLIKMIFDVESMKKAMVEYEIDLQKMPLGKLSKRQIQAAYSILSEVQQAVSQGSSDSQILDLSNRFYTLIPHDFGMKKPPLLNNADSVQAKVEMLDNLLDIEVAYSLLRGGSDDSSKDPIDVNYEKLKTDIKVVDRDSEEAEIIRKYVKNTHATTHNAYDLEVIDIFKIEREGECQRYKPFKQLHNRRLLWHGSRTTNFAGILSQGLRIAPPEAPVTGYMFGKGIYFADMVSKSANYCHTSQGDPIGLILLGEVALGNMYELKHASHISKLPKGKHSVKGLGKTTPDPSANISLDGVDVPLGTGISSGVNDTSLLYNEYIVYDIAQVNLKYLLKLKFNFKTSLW

What does the source list for `COCCn1cc(-c2ccc(C(=O)C3CCN(C(=O)N(C)c4ccc(OC)cc4)CC3)cc2)cn1` [Compound A30, 4-{4-[1-(2-methoxy-ethyl)-1H-pyrazol-4-yl]-benzoyl}-piperidine-1-carboxylic acid (4-methoxy-phenyl)-methyl-amide]?
IC50 (His-tagged Parp-1): 3 to 50 µM; IC50 [1]: < 0.3 µM; EC50 (Tankyrase): < 3e-07 M; IC50 [2]: < 0.3 µM

Which results are given for `COCCn1cc(-c2ccc(N(C)C(=O)N3CCC(C(=O)c4ccc(OC)cc4)CC3)cc2)cn1` [Compound A31, 4-(4-methoxy-benzoyl)-piperidine-1-carboxylic acid {4-[1-(2-methoxy-ethyl)-1H-pyrazol-4-yl]-phenyl}-methyl-amide]?
IC50 (His-tagged Parp-1): 3 to 50 µM; IC50 [1]: < 0.3 µM; EC50 (Tankyrase): < 3e-07 M; IC50 [2]: < 0.3 µM

What does the source list for `COCCn1cc(-c2ccc(C(=O)C3CCN(C(=O)N(C)c4ccc(-c5cnn(CCOC)c5)cc4)CC3)cc2)cn1` [Compound A32, 4-{4-[1-(2-methoxy-ethyl)-1H-pyrazol-4-yl]-benzoyl}-piperidine-1-carboxylic acid {4-[1-(2-methoxy-ethyl)-1H-pyrazol-4-yl]-phenyl}-methyl-amide]?
IC50 (His-tagged Parp-1): 3 to 50 µM; IC50 [1]: < 0.3 µM; EC50 (Tankyrase): < 3e-07 M; IC50 [2]: < 0.3 µM

For `CCn1cc(-c2ccc(C(=O)C3CCN(C(=O)N(C)c4ccc(OC)cc4)CC3)cc2)cn1` [Compound A33, 4-[4-(1-ethyl-1H-pyrazol-4-yl)-benzoyl]-piperidine-1-carboxylic acid (4-methoxy-phenyl)-methyl-amide], which IC50 (His-tagged Parp-1) is on record?
The IC50 was 3 to 50 µM.

What about the IC50 [1] of the same compound?
Its IC50 is < 0.3 µM.

And the EC50 (Tankyrase)?
The EC50 was < 3e-07 M.

What about the IC50 [2] of the same compound?
Its IC50 is < 0.3 µM.

Which IC50 (His-tagged Parp-1) does the source give for `CCn1cc(-c2ccc(N(C)C(=O)N3CCC(C(=O)c4ccc(OC)cc4)CC3)cc2)cn1` [Compound A34, 4-(4-methoxy-benzoyl)-piperidine-1-carboxylic acid [4-(1-ethyl-1H-pyrazol-4-yl)-phenyl]-methyl-amide] here?
The IC50 was 3 to 50 µM.

And the IC50 [1]?
The IC50 was < 0.3 µM.

What about the EC50 (Tankyrase) of the same compound?
Its EC50 is < 3e-07 M.

And the IC50 [2]?
Its IC50 is < 0.3 µM.

Which IC50 (His-tagged Parp-1) does the source give for `COc1ccc(N(C)C(=O)N2CCC(C(=O)c3ccc(-c4cnn(CCN5CCCC5)c4)cc3)CC2)cc1` [Compound A35, 4-{4-[1-(2-pyrrolidin-1-yl-ethyl)-1H-pyrazol-4-yl]-benzoyl}-piperidine-1-carboxylic acid (4-methoxy-phenyl)-methyl-amide] here?
Its IC50 is 3 to 50 µM.

What about the IC50 [1] of the same compound?
The IC50 was < 0.3 µM.

What about the EC50 (Tankyrase) of the same compound?
The EC50 was < 3e-07 M.

What about the IC50 [2] of the same compound?
Its IC50 is < 0.3 µM.

With `COc1ccc(C(=O)C2CCN(C(=O)N(C)c3ccc(-c4cnn(CCN5CCCC5)c4)cc3)CC2)cc1` [Compound A36, 4-(4-methoxy-benzoyl)-piperidine-1-carboxylic acid methyl-{4-[1-(2-pyrrolidin-1-yl-ethyl)-1H-pyrazol-4-yl]-phenyl}-amide] as the compound, how does the IC50 (His-tagged Parp-1) read?
Its IC50 is 3 to 50 µM.

And the IC50 [1]?
The IC50 was < 0.3 µM.

And the EC50 (Tankyrase)?
Its EC50 is < 3e-07 M.

What about the IC50 [2] of the same compound?
Its IC50 is < 0.3 µM.

For `CCOC(=O)CN(C(=O)N1CCC(C(=O)c2ccccc2)CC1)c1ccccc1` [Compound A39, [(4-benzoyl-piperidine-1-carbonyl)-phenyl-amino]-acetic acid ethyl ester], which IC50 (His-tagged Parp-1) is on record?
The IC50 was 3 to 50 µM.

What about the IC50 [1] of the same compound?
The IC50 was < 0.3 µM.

What about the EC50 (Tankyrase) of the same compound?
Its EC50 is 3e-07 to 3e-06 M.

And the IC50 [2]?
Its IC50 is < 0.3 µM.

Which “Wnt-stimulated accumulation of ρ-catenin” value (ρ-catenin) does the source give for `Oc1nc(-c2ccc(C(F)(F)F)cc2)nc2c1CSCC2` [XAV939] here?
The value was “blocked”.

And the “growth of DLD-1-cancer cells” value (DLD-1-cancer cells)?
The value was “inhibits growth”.
